Earlier results on 4 compounds are cited in US20170071966A1, “PHARMACEUTICAL COMPOSITION” (priority 2014, published 2017).

SMILES strings stand for the structures. Where two headings read alike, the source gives them in different places.

The subject of data set [1] is mice exposed to whole body radiation. As to conditions: beta-carotene alone, given orally before or after whole body radiation.
The conditions of data set [2]: Senel et al. 1994.
For data set [3] the following is noted: Nakane et al. 1996.
The conditions of data set [4]: Zhang et al. 1994.
Assay in data set [5]: not given
The source holds these as a separate data set.

The conditions of data set [6]: gerbils, 1% in the food for 8 weeks.
The conditions of data set [7]: a few subjects, gram quantities.
For data set [8] the following is noted: mice, drinking water 10, 20 and 30 mg/ml (4000, 8000, 12000 mg/kg body weight), 19-day experiment.

Regarding `CC1=C(/C=C/C(C)=C/C=C/C(C)=C/C=C/C=C(C)/C=C/C=C(C)/C=C/C2=C(C)CCCC2(C)C)C(C)(C)CCC1` [beta-carotene], the survival from radiation result in data set [1] is reported as “enhance survival”. For the same compound, the “risk of hypervitaminosis A” value (high beta-carotene doses) was “no risk of hypervitaminosis A”. Also, where the note is “patients with erythropoietic protoporphyria, 180 to 300 mg per day”, the long-term safety entry is reported as “safe at the highest daily dose for a lifetime”. Besides, under “surveillance over the decades it was a prescription drug”, the acute toxicity entry is recorded as “no known acute toxicity”.

As for `C[C@H](CCC(=O)[O-])[C@H]1CC[C@H]2[C@@H]3[C@H](O)C[C@@H]4C[C@H](O)CC[C@]4(C)[C@H]3C[C@H](O)[C@]12C.[Na+]` [sodium cholate, Sodium cholate], the “increase of mucosal permeability of fluorescein isothiocyanate” value in [2] was 100-200 times. In data set [3], the “absorption of luteinizing hormone releasing hormone” value is listed as “increased the absorption”. In addition, the “buccal absorption of insulin” value in [4] is “increased the buccal absorption”.

Turning to `Nc1nc2c(ncn2[C@@H]2O[C@H](CO)[C@@H](O)[C@H]2O)c(=O)[nH]1` [guanosine], the water solubility entry in data set [5] is “slightly water-soluble”. In addition, the deleterious effects result in data set [6] is recorded as “no obvious deleterious effects”.

As for `Nc1nc2c(ncn2[C@@H]2O[C@H](COP(=O)(O)O)[C@@H](O)[C@H]2O)c(=O)[nH]1` [guanosine monophosphate, Guanosine Monophosphate], the water solubility entry in [5] is “highly water-soluble”. For the same compound, the ill effects result was “no known ill effects” in data set [7] and “no obvious ill effects” in [8].
